The values below come from patent US9675576B2, “Polyenolic zinc-binding agents (pezbins) actively promote inactivation of cancer stem cells and potentiate cytotoxic anti-tumor drug substances” (The Research Foundation for The State University of New York, priority 2012, dated 2017).

Assay [1] deals with Oct-4, Sox-2, Nanog, Lin-28 and c-Myc. As to the kind of experiment: Stem cell-specific PCR array on 3D spheroids induced by CD133high/CD44high cells. It counts as cell-based. The following applies: single treatment with 0.01 μg/ml. The method, then:
Stem cell-specific gene expression profiles were studied with the PCR Array assay (SABiosciences, CA) in accordance with the manufacturer's recommendations. Briefly, total RNA was isolated from different cell populations (cancer stem cells expressing high levels of the CD133 and CD44, or whole floating spheroids that are enriched with CSCs) using PARIS kit (Ambion). Up to 1 μg of total RNA was treated with DNase and cDNA was prepared using RT^2 First Strand kit. For each analysis, pairs of the test and control cDNA samples were mixed with RT^2 qPCR Master mix and distributed across the PCR array 96-well plates, each of which contained 84 stem cell-related probes and control housekeeping genes. After cycling with real-time PCR (Opticon MJ Research or ABI 7300, Applied Biosystems), obtained amplification data (fold-changes in Ct values of all the genes) was analyzed with SABiosciences software.
Since CSC-enriched CD 133^+ and CD44^+ cell populations are more resistant to conventional therapies than other more differentiated cells, the cytotoxic effects of SBT-1214 were tested against such cell populations in colon (Botchkina et al., 2010) and prostate (FIG. 5) cancers. […]

Assay [2] relates to PPT2- and PC3MM2-induced tumors. As to the kind of experiment: Tumor xenografts induced by CD133+ cells, tumor size. It counts as in vivo, NOD/SCID mice. On the procedure:
All experiments involving the use of animals were carried out in strict accordance with the recommendations in the Guide for the Care and Use of Laboratory Animals of the National Institutes of Health, via a research protocol that was approved by Stony Brook University Institutional Animal Care and Use Committee (IACUC). NOD/SCID mice (Charles River Laboratories International, Inc., MA) were maintained under defined conditions at SBU animal facility. After sufficient propagation, CD133^+ cells were resuspended in 1:1 MSCGM/Matrigel and injected to the flanks of 6 weeks old NOD/SCID mice (3,000 cells per mice; subcutaneously). Tumor development was monitored starting from the second week. The primary tumor sizes were measured with a caliper on a weekly basis and approximate tumor weights determined using the formula 0.5ab^2, where b is the smaller of the two perpendicular diameters. All mice were terminated after fourth week of treatment, if the tumor measured ˜2 cm, or at the first sign of suffering.
Animals were handled according to protocols that have been approved by the Institutional Animal Care and Use committee of the Stony Brook University. […] Systemic toxicity in NOD/SCID mice was closely monitored and evaluated by standard criteria (motor activity, morbidity, appetite, posture and appearance). […] Cells were counted and plated on 48-well plates at a final count of 300 cells per well. […]

The test system of assay [3] is CD133+ PC3MM2 cells. As to the kind of experiment: MTT cytotoxicity assay, CD133+ PC3MM2 cells on type I collagen. It counts as cell-based, human. To be noted: 72 hours, 10 nM-10 μM, stated as up to. On the procedure: The CSC-specific cytotoxic effects were studied in two different settings both of which are known to maintain/promote sternness phenotype: adherent to type I collagen cultures and 3D cultures of floating spheroids (Baretton, G. B. 1994; Miyoshi, Y. 2000; Koivisto, P. 1995). The CD133^high/CD44^high cells (1×10^3 cells/well) isolated either from PPT2 or PC3MM2 cell lines were seeded onto the type I collagen-coated 96-well plates, cultured in the MSCGM for 2 days, and the treatment was initiated upon 90% confluency. Paclitaxel, SBT-1214 and CMC2.24 were dissolved in sterile DMSO and then serially diluted in MSCGM. […] Cell death was analyzed on adherent type I collagen cell cultures with the MTT assay [MTT=3-(4,5-dimethylthiazol-2-yl)-2,5-diphenyltetrazolium bromide] as recommended by manufacturer (Invitrogen). […]
The dose-response cytotoxicity of SBT-1214, CMC2.24/and their combination was evaluated by standard MTT assay (all of the in vitro experiments were repeated at least three times and each measurement for the MMT assay was performed in 4 repeats). The dose-response points were plotted as a percentage of the untreated control, the absorbance of which was considered as 100%. Data were expressed as means±SD for each drug concentration. […] Data were expressed as means±SD for control and drug treated tumors. The statistical significance of differences was determined using Student's t-test. […]
On the technique in general: Tetrazolium dyes change colour on reduction, which living cells bring about.

Assay [4] relates to p53 and p21. The assay can be described thus: Western blot of pro-apoptotic proteins. It counts as cell-based, human. To be noted: CD133+ and bulk PPT2 cells, previously not expressed. On the procedure:
Cells were lysed using Active Motif Nuclear Co-ip kit according to manufacturer's protocol. 20 μg of enriched nuclear and cytoplasmic extracts was subjected to electrophoresis in 10% polyacrylamide gel. The proteins were then transferred to a nitrocellulose membrane and developed with appropriate antibodies.
Background: Immunoblotting shows a protein as a band on a membrane.

Entries after “also recorded” stand apart in the source; their conditions may differ.

Consider `CC(=O)O[C@@]12CO[C@@H]1C[C@H](O)[C@@]1(C)C(=O)[C@H](OC(=O)C3CC3)C3=C(C)[C@@H](OC(=O)[C@H](O)[C@H](C=C(C)C)NC(=O)OC(C)(C)C)C[C@@](O)([C@@H](OC(=O)c4ccccc4)[C@H]21)C3(C)C` [SBT-1214], for which the “expression of key regulators of pluripotency” value in assay [1] is on record as “significantly inhibited”. Also, the tumor size result in assay [2] (40, 20, 20, 20 mg/kg weekly i.v.) is “more significant tumor regression; also recorded: dramatic reduction in tumor size”; in assay [2] (40, 40, 40 mg/kg weekly i.v., by the third treatment) it was “dramatically shrunk”. Besides, the cell death result in assay [3] is given as “up to 60%”. For the same compound, the “expression of p21 and p53” value in assay [4] was “induced expression”.
